Source: publication PMC7949049 (The Journal of Biological Chemistry, 2020)
Entries after “also recorded” stand apart in the source; their conditions may differ. Positions of bridges follow the written chain, without caps; N, C: chain ends. Non-standard residues stand in square brackets, D forms with d. Residues, ends and D or L forms follow the SMILES beside them. *: point of attachment. 5FAM = O=C1OC2(c3ccc(O)cc3Oc3cc(O)ccc32)c2ccc(C(=O)*)cc21; S5 = C=CCCC[C@](C)(N)C(=O)O

Key:
RhoA·GMPPNP = target: T1, RhoA·GMPPNP (Homo sapiens, UniProt P61586, F25N/Q63L); assay: Direct-binding fluorescence polarization, RhoA; conditions: 20 nM FAM-labelled non-solubilized peptide; n ≥ 2; ± standard error from curve fitting; read-out: Kd RhoA, FP (Table S1)
T1 construct: RhoA (pGEX-2T, 1–186, F25N/Q63L); GST (cleaved yes); made in house
Description: (§1) FP experiments were performed on a BMG Labtech Pherastar fluorimeter at 298 K with excitation at 485 nm and emission at 520 nm as described previously ([34]), using 20 nM FAM-labeled peptide. Plates were read after 30 min incubation at room temperature. Data were fitted to a single-site binding model using nonlinear regression analysis in GraphPad prism 8.4 to obtain Kd values and their standard errors.

Cdc42 = target: T2, Cdc42 (Homo sapiens, UniProt P60953, Q61L); assay: Direct-binding fluorescence polarization, Cdc42; conditions: 20 nM FAM-labelled non-solubilized peptide; n ≥ 2; ± standard error from curve fitting; read-out: Kd Cdc42, FP (Table S1)
T2 construct: Cdc42 (pGEX-2T, 1–184, Q61L); GST (cleaved yes); made in house
Description: as §1

[1] = Solubility in aqueous solution (observation); type: physicochemical; conditions: qualitative
cells = conditions: confocal microscopy of FAM-labeled peptide; cited from earlier work
Text: It has been shown previously that stapled peptides need to form an amphipathic helix in order to enter cells ([52]), and the amphipathicity of our peptide was disrupted by the inclusion of the so ...

[2] = Circular dichroism, helicity; type: physicochemical; conditions: CD 185-260 nm, 0.2 mg/ml peptide in water, 298 K; CDSSTR method, reference set 3, Dichroweb
Description: CD spectra were recorded at 1 nm intervals between 260 and 185 nm using an Aviv Model 410 CD spectrometer with a 1 mm path length quartz cuvette at 298 K. Three scans were recorded for each peptide or protein, the data were averaged, and the buffer background was subtracted. RLIP76 RBDs were measured at 0.2 mg/ml in 10 mM phosphate buffer, pH 7.3, and 150 mM NaF, while peptides were measured at 0.2 mg/ml in water. The helical content of each peptide and RBD was determined using the CDSSTR method with reference Set 3 and DichroWeb ([59], [60], [61]).

T2 sequence (P60953 1-184 Q61L, species assumed): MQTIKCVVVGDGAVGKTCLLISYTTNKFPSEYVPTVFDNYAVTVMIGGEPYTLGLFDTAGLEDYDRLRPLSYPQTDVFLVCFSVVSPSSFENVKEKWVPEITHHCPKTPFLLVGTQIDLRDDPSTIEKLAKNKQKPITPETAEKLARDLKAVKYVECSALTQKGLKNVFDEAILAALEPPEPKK
T1 sequence (P61586 1-186 F25N/Q63L): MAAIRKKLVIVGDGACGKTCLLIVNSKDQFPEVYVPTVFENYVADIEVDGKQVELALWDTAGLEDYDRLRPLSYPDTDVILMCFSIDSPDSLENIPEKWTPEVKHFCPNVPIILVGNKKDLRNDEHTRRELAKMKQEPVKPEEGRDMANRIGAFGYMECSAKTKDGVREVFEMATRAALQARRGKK

With `CC[C@H](C)[C@H](NC(=O)[C@H](CCCNC(=N)N)NC(=O)[C@H](CCC(N)=O)NC(=O)[C@@H](NC(=O)[C@H](CCC(=O)O)NC(=O)[C@H](Cc1c[nH]c2ccccc12)NC(=O)[C@H](CC(C)C)NC(=O)[C@]1(C)CCCC=CCCC[C@](C)(NC(=O)[C@H](CC(C)C)NC(=O)c2ccc3c(c2)C(=O)OC32c3ccc(O)cc3Oc3cc(O)ccc32)C(=O)N[C@@H](CCCCN)C(=O)N[C@@H](CCC(=O)O)C(=O)N[C@@H](CCC(=O)O)C(=O)N1)C(C)C)C(=O)N[C@@H](CC(C)C)C(=O)N[C@H](C(=O)N[C@@H](C)C(=O)N[C@@H](CC(C)C)C(=O)N[C@@H](CCCCN)C(=O)N[C@@H](CCCNC(=N)N)C(=O)N[C@@H](CCCCN)C(=O)N[C@@H](CC(C)C)C(=O)N[C@@H](CCCNC(=N)N)C(=O)N[C@@H](CCC(=O)O)C(=O)N[C@@H](C)C(N)=O)[C@@H](C)O` [SP1] (5FAM-L[S5]KEE[S5]LWEVQRILTALKRKLREA-NH2; staple 2-6) the Kd (RhoA·GMPPNP) was 0.0338 ± 0.0054 µM, the Kd (Cdc42) was 13 ± 7.4 µM and the solubility [1] was “poor solubility; also recorded: poorly soluble”. The “cell entry (previous work)” value (cells) was “able to enter cells”.
In the case of `CC[C@H](C)[C@H](NC(=O)[C@H](CCCNC(=N)N)NC(=O)[C@H](CCC(N)=O)NC(=O)[C@H](CCC(=O)O)NC(=O)[C@H](CCC(=O)O)NC(=O)[C@H](Cc1c[nH]c2ccccc12)NC(=O)[C@H](CC(C)C)NC(=O)[C@]1(C)CCCC=CCCC[C@](C)(NC(=O)[C@@H](N)CC(C)C)C(=O)N[C@@H](CCCCN)C(=O)N[C@@H](CCC(=O)O)C(=O)N[C@@H](CCC(=O)O)C(=O)N1)C(=O)N[C@@H](CCCCN)C(=O)N[C@H](C(=O)N[C@@H](C)C(=O)N[C@@H](CCC(=O)O)C(=O)N[C@@H](CCCCN)C(=O)N[C@@H](CCCNC(=N)N)C(=O)N[C@@H](CCCCN)C(=O)N[C@@H](CCCCN)C(=O)N[C@@H](CCCNC(=N)N)C(=O)N[C@@H](CCC(=O)O)C(=O)N[C@@H](C)C(N)=O)[C@@H](C)O` [wt-sol] (H-L[S5]KEE[S5]LWEEQRIKTAEKRKKREA-NH2; staple 2-6; N-terminus assumed), the “Helicity (%) of peptides” value [2] is reported as 46%.
